Values quoted from earlier work, collected in patent publication US20160206673A1, “Composition and Method for Improving Sexual Performance” (priority 2015, published 2016).

Tests used:
[1] = system: men with erectile dysfunction; conditions: background evidence
[2] = system: men with erectile dysfunction; conditions: oral medications

Structure (SMILES)	effect on sexual function / erectile dysfunction [1]	side effects / safety [1]	duration of erection helping effects [2]
C[C@]12CC[C@H](O)CC1=CC[C@@H]1[C@@H]2CC[C@]2(C)C(=O)CC[C@@H]12 [DHEA, dehydroepiandrosterone]	increases libido in women and helps erectile dysfunction in men		
N=C(N)NCCC[C@H](N)C(=O)O [L-arginine]	improves erectile dysfunction	nausea, cramps and diarrhea	
COC(=O)[C@@H]1[C@H]2C[C@H]3c4[nH]c5ccccc5c4CCN3C[C@@H]2CC[C@@H]1O [Yohimbine]	can improve sexual dysfunction associated with a drug used to treat depression	increased blood pressure, fast or irregular heartbeat, and anxiety	
CCCc1nn(C)c2c(=O)[nH]c(-c3cc(S(=O)(=O)N4CCN(C)CC4)ccc3OCC)nc12 [sildenafil]			up to eight
